PubChem BioAssay (NCI)
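48-hour exposure; five concentrations; linearly interpolated endpoints. At the GI50, growth is halved. The concentration for full growth arrest is given as TGI.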

Assays:
Assay in all cases: NCI anticancer screen, dose series, 48 h
786-0 renal = tested on: 786-0 renal
UACC-62 melanoma = tested on: UACC-62 melanoma
U251 CNS = tested on: U251 CNS
HCT-15 colon = tested on: HCT-15 colon
TK-10 renal = tested on: TK-10 renal
KM12 colon = tested on: KM12 colon
HL-60(TB) leukemia = tested on: HL-60(TB) leukemia
UACC-257 melanoma = tested on: UACC-257 melanoma
M14 melanoma = tested on: M14 melanoma
HCT-116 colon = tested on: HCT-116 colon

Compound | GI50 (786-0 renal) [nM] | TGI (786-0 renal) [µM] | GI50 (UACC-62 melanoma) [nM] | TGI (UACC-62 melanoma) [µM] | GI50 (U251 CNS) [nM] | TGI (U251 CNS) [µM] | GI50 (HCT-15 colon) [nM] | TGI (HCT-15 colon) [µM] | GI50 (TK-10 renal) [µM] | TGI (TK-10 renal) [µM] | GI50 (KM12 colon) [µM] | TGI (KM12 colon) [µM] | GI50 (HL-60(TB) leukemia) [nM] | TGI (HL-60(TB) leukemia) [µM] | GI50 (UACC-257 melanoma) [nM] | TGI (UACC-257 melanoma) [µM] | GI50 (M14 melanoma) [nM] | TGI (M14 melanoma) [µM] | GI50 (HCT-116 colon) [nM] | TGI (HCT-116 colon) [µM]
CC1CN1CC(O)C(O)CN1CC1C (stereo not given) | 831 | > 41.2 | 2990 | > 53.2 | 1360 | > 64.8 | 4000 | 46 | 7.7 | 65.7 | 7.37 | 23 | 305 | 20.1 | 3120 | 23.3 | 2160 | 28.7 | 2290 | > 100
CC(C)c1ccc(C(=O)Nc2sc3c(c2C(N)=O)CCC(=O)C3)cc1 | 2290 | 10.5 | 460 | 1.91 | 399 | 1.9 | 387 | 2.12 | 1.29 | 3.81 | 0.45 | 1.85 | 615 | 4.82 | 2050 | 5.04 | 522 | 2.44 | 311 | 1.43
COc1ccc(C(C)c2cc3c(cc2OC)OCO3)cc1 (stereo not given) |  | > 53.4 |  | > 69.2 |  | > 100 |  | 13.5 |  | > 100 |  | > 41 |  | 2.87 |  | > 75.5 |  | 24.5 |  | 46.3
NC1=NN(c2ccccc2)C(=O)C1C(=O)CCC(=O)Nc1cccc(C(F)(F)F)c1 (stereo not given) |  | > 100 |  | > 100 |  | > 100 |  | > 100 |  | > 100 |  | > 100 |  | > 100 |  | > 100 |  | > 100 |  | > 100
O=C1c2ccccc2-c2c1c1ccccc1c(=O)n2Cc1ccccc1 |  | > 100 |  | > 100 |  | > 100 |  | > 100 |  | > 100 |  | > 100 |  | > 100 |  | > 100 |  | > 100 |  | > 100
CCc1[nH]c(=O)nc(N)c1-c1ccc(N2CCCCC2)c([N+](=O)[O-])c1 |  | > 100 |  | > 100 |  | > 100 |  | > 100 |  | > 100 |  | > 100 |  | > 100 |  | > 100 |  | > 100 |  | > 100
